{
  "source": "patent US7470821B2",
  "about": "“Aldolase-inhibiting aromatic compounds” (Valorisation-Recherche, Limited Partnership, priority 2003, dated 2008)",
  "key": {"[1]": {"target": "T1, native (wild-type) rabbit muscle aldolase (Oryctolagus cuniculus, UniProt P00883)", "T1 construct": "made in house", "T1 sequence (P00883 2-364)": "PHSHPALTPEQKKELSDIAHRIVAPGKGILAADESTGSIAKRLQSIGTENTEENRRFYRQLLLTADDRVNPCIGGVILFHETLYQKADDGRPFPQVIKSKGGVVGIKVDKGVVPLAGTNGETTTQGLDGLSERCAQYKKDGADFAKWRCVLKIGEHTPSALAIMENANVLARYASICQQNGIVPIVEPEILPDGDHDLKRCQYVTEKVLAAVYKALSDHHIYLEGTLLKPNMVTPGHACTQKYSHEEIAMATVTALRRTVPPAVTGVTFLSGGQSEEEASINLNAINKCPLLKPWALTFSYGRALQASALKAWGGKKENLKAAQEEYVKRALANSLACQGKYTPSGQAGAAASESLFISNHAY", "test": "UV-visible differential spectroscopy (method A) of aldolase-inhibitor complex formation", "type": "binding", "conditions": "for ΔA relative to 432 nm / kapp: wild-type; for kapp: 431 nm", "protocol": "Absorption spectra are measured using a Cary 1E Varian spectrophotometer at 25° C. The same TEA buffer is used for titrations and activity analyses. Absorption spectra are measured by two different methods, in particular as described in Gefflaut T. et al., 1986 (Bioorg. Med. Chem., 4:2043-2054) and Blonski C. et al., 1997 (Biochem J. 323:71-77).\n(§1) For method A, absorption spectra are recorded as a function of time, between 250 and 500 nm, or at wavelengths corresponding to maximum or minimum absorption. Measurements are begun by adding FHN-P at varying final concentrations (0.1-1 mM) in the TEA buffer containing a fixed concentration of aldolase (10 μM of subunits). Measured absorption spectra for the enzyme complex are corrected using the absorbance of the buffer, the FHN—P, and the enzyme (measured separately). The differential absorption spectra thus obtained are used to calculate the value of the constants that define the formation of the aldolase-inhibitor complex.\nThe apparent first-order rate constant (kapp) and the maximum threshold variations of absorption (ΔAmax) are obtained for each test by applying the slow-binding absorption data to the first-order kinetic equation (or to both first-order kinetic mechanisms). The dissociation constant (Kd) for the Schiff base formed between the FHN-P and the aminocaproic acid is obtained from the absorption differences calculated at equilibrium by using the equation eqn.(2). The value of the dissociation constant (Ki) for the rapidly formed EI complex and that of the constant k2 correspond to the slow formation of the EI* complex resulting from analysis of the values of the first-order constants based on the equations eqn.(1) or eqn.(3).\nThe slight differences in band positions with the reaction model may be attributed to differences in the FHN-P protein environment in comparison to the model system. The changing spectra of absorbance differences coincides with two distinct first-order mechanisms. The rapid kinetics phase can be seen in a more significant change in absorbance and saturating behavior at a high inhibitor concentration, correlated with a total loss of enzyme activity. A slow kinetics phase can also be seen when the analyses are carried out at saturating concentrations of hexitol-P2 (10 mM). This slow kinetics phase, which corresponds to a constant thirty times weaker and which contributes to one-fourth of the final absorbance variation is not linked to the inhibition observed. At these saturating concentrations, the molar absorption coefficients relative to the linked FHN-P are calculated assuming that the for active aldolase sites are occupied: Δε431=3600±200 M^−1.cm^−1; Δε376=−2140±110 M^−1.cm^−1; Δε293=12480±650 M^−1.cm^−1; and Δε268=5080±250 M^−1.cm^−1.\n(§2) Residues of lysine 106, 146 and 229 residues are located at the active aldolase sites and thus are candidates for causing inactivation by forming a Schiff base with the FHN-P. In order to identify which lysine is responsible for the differential absorbances in the presence of FHN-P, sporadic mutations of these lysine residues were created and named: K107M (Research Collaboratory for Structural Bioinformatics Protein Databank), K146M (Blonski C. et al., 1997, Biochem. J. 323:71-77) and […] (Research Collaboratory for Structural Bioinformatics Protein Databank). […] UV-visible differential spectroscopy (method A) was used to examine formation of the enzyme complex for each sporadic mutation in the presence of a fixed concentration of FHN-P (300 μM)."}, "[2]": {"target": "T2, K146M mutant RM aldolase (Oryctolagus cuniculus, UniProt P00883, K147M)", "T2 construct": "made in house", "T2 sequence (P00883 1-364 K147M)": "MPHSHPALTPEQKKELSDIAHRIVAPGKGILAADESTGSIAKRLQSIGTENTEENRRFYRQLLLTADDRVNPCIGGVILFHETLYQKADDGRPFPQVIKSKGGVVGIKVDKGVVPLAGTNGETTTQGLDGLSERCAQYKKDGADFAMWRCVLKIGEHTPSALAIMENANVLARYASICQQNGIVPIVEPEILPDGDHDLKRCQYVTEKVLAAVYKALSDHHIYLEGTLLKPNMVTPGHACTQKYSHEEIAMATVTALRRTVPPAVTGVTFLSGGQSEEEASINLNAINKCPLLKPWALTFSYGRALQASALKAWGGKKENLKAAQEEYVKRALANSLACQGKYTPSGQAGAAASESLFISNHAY", "test": "UV-visible differential spectroscopy (method A) with mutated aldolase K146M", "type": "binding, rabbit", "conditions": "FHN-P 300 μM; for kapp: 431 nm", "protocol": "as §1\nEvery UV-visible differential test spectroscopy test using mutated aldolases (10 μM of subunits) is carried out using method A. • Monitored by Electrospray Ionization Mass Spectrometry (ESI-MS).\nas §2"}, "[3]": {"conditions": "formation of EI* complex, UV-visible differential spectroscopy"}, "[4]": {"conditions": "FHN-P 300 μM, first (rapid) phase"}, "[5]": {"conditions": "FHN-P 300 μM, second (slow) phase"}},
  "note": "Values joined by “and” are separate entries in the source; they are usually repeats but may differ in a detail not shown here. Equal values may be shown once. Read-outs that look alike come from different tables or passages of the source.",
  "data": [
    {"smiles": "O=Cc1c(O)ccc2cc(OP(=O)(O)O)ccc12", "note": "[FHN-P, 5-formyl-6-hydroxy-2-naphthylphosphate]", "values": [
      {"measurement": "Ki", "setting": "[1]; EI complex, UV-visible differential spectroscopy, FHN-P 0.1-1 mM, aldolase 10 μM subunits, 25° C, read-out: Ki", "result": "125 ± 25", "unit": "µM"},
      {"measurement": "Ki", "setting": "[1]; calculated from the spectroscopy results, read-out: global inhibition constant Ki*", "result": "0.025 µM and ~0.025 µM"},
      {"measurement": "k2", "setting": "[1]; [3]", "result": "0.067 ± 0.004", "unit": "min⁻¹"},
      {"measurement": "t1/2", "setting": "[1]; [3]", "result": "~6", "unit": "min"},
      {"measurement": "stoichiometry of FHN-P linked per tetrameric aldolase", "setting": "[1]; maximum inhibition, EI* complex", "result": "3.9-4.2 mols of FHN-P linked per tetrameric aldolase mole"},
      {"measurement": "Residual specific activity", "setting": "[1]; wild-type aldolase, FHN-P 300 μM", "result": "ud (undetected)"},
      {"measurement": "ΔA relative to 432 nm", "setting": "[1]; [4]", "result": 100, "unit": "%"},
      {"measurement": "kapp", "setting": "[1]; [4]", "result": "0.045 ± 0.0025", "unit": "min⁻¹"},
      {"measurement": "ΔA relative to 432 nm", "setting": "[1]; [5]", "result": 25, "unit": "%"},
      {"measurement": "kapp", "setting": "[1]; [5]", "result": "0.0015 ± 0.00035", "unit": "min⁻¹"},
      {"measurement": "Residual specific activity", "setting": "[2]", "result": "ud"},
      {"measurement": "ΔA relative to 432 nm", "setting": "[2]; first phase", "result": 98, "unit": "%"},
      {"measurement": "kapp", "setting": "[2]; first phase (associated with inhibition)", "result": "0.005 ± 0.0005", "unit": "min⁻¹"},
      {"measurement": "ΔA relative to 432 nm", "setting": "[2]; second (slow) phase", "result": 25, "unit": "%"},
      {"measurement": "kapp", "setting": "[2]; second (slow) phase", "result": "0.0015 ± 0.0003", "unit": "min⁻¹"}
    ]}
  ]
}
